Series [1] can be described thus: Pharmacokinetics test in Beagle dogs (oral capsules). Format: in vivo. Particulars: for Tmax / AUClast / Cmax: 10 mg/kg, male Beagle dogs, oral capsules. The method, then: The salt of the compound shown in formula (I) and the free base crystal form 2 of the compound shown in formula (I) of the present invention were respectively filled with capsules for oral administration.
Male Beagle dogs of 8-12 kg were divided into 2 groups, 3 dogs in each group, and capsules containing test samples were orally administered at a dose of 10 mg/kg, and blood was collected at time points of 0.25, 0.5, 1.0, 2.0, 4.0, 6.0, 8.0 and 24 h. Standard curve was plotted based on concentrations of the samples in a suitable range, the concentration of the test sample in the plasma sample was measured and quantified by AB SCIEX API4000-type LC-MS / MS at MRM mode. Pharmacokinetic parameters were calculated according to drug concentration -time curve using a noncompartmental method by WinNonLin 6.3 software. Table 1 Pharmacokinetic experimental results data of salt and free base crystal form 2 of the present invention in Beagle dogs

Series [2] in a line: Pharmacokinetics test in SD rats (oral gavage, PEG400 suspension). Format: in vivo. Particulars: 200 mg/kg. The procedure: The salt of the compound shown in formula (I) and the free base crystal form 2 of the compound shown in formula (I) of the present invention were respectively prepared into a suspension using PEG400, and the male SD rats were given 200 mg/kg test samples orally by gavage, and 3 animals in each group were given. Blood was collected at time points 0.25, 0.5, 1.0, 2.0, 5.0, 7.0 and 24 h after administration. Standard curve was plotted based on concentrations of the samples in a suitable range, the concentration of the test sample in the plasma sample was measured and quantified by AB SCIEX API4000-type LC-MS / MS at MRM mode. Pharmacokinetic parameters were calculated according to drug concentration -time curve using a noncompartmental by WinNonLin 6.3 software. Table 2 Pharmacokinetic experimental results data of salt and free base crystal form 2 of the present invention in male SD rats

The nature of series [3]: Stability test: high-humidity test. Format: physicochemical. Particulars: for Purity: HPLC. The procedure: High-humidity test: The salt of the compound shown in formula (I) of the present invention was taken an appropriate amount and put into a flat weighing flask, divided into ≤ 3 mm thick thin layer. The samples were placed at 25 °C, RH 90% ± 5% and 25 °C, RH 75% ± 5% for 30 days. The samples were sampled at day 5, day 10 and day 30, and the sample color was observed. The purity of the sample was determined by HPLC.

Series [4] can be described thus: Stability test: high-temperature test. As to conditions: for Purity: HPLC. Format: physicochemical. The procedure: High-temperature test: The salt of the compound shown in formula (I) of the present invention was taken an appropriate amount and put into a flat weighing flask, divided into ≤ 3 mm thick thin layer. The samples were placed at 60 °C and 40 °C for 30 days. The samples were sampled at day 5, day 10 and day 30, and the sample color was observed. The purity of the sample was determined by HPLC.

A short description of another series: Long-term stability test. As to conditions: for Purity: long-term, 5 °C ± 3 °C, packaged, HPLC. Type of series: physicochemical. The procedure: Long-term stability test: The samples were inspected under the conditions of single-layer PE inner packaging, aluminum foil bag outer packaging, built-in KD-20 oxygen absorber, and vacuum nitrogen filling and heat sealing packaging, low temperature 5 °C ± 3 °C long-term test conditions, and the sample color was observed. The purity of the sample was determined by HPLC.

[5] abbreviates: High humidity RH75%, 25 °C, 5 days.
[6] abbreviates: High humidity RH75%, 25 °C, 10 days.
[7] abbreviates: High humidity RH75%, 25 °C, 30 days.
[8] abbreviates: High humidity RH90%, 25 °C, 5 days.
[9] abbreviates: High humidity RH90%, 25 °C, 10 days.
Where [10] appears, read: High humidity RH90%, 25 °C, 30 days.
Setting [11] is: in Beagle dogs, compared with free base crystal form 2.
Setting [12] is: High temperature (40°C), 5 days.
Setting [13] is: High temperature (40°C), 10 days.
The mark [14] stands for this setting: High temperature (40°C), 30 days.
Where [15] appears, read: High temperature (60°C), 5 days.
The mark [16] stands for this setting: High temperature (60°C), 10 days.
The mark [17] stands for this setting: High temperature (60°C), 30 days.

Molecules are shown by their SMILES. Counter-ions that a name gives are not always drawn.

For `Cc1noc(-c2c(N)ncnc2N[C@@H](C)c2nc3cccc(C#CCO)c3c(=O)n2-c2ccccc2)n1` [(S)-2-(1-((6-amino-5-(3-methyl-1,2,4-oxadiazol-5-yl)pyrimidin-4-yl)amino)ethyl)-5-(3-hydroxyprop-1-yn-1-yl)-3-phenylquinazolin-4(3H)-one], the Tmax turned out to be 3 ± 1.7 h in series [1] (male, Beagle, dog, plasma, po, read-out: Tmax) and 1.33 ± 0.58 h in series [2] (male, SD, rat, plasma, po, read-out: Tmax). In series [2] (male, SD, rat, plasma, po), the exposure AUC(0-t) was found to be 55200 ± 8700 ng·h/mL.
Regarding `Cc1noc(-c2c(N)ncnc2N[C@@H](C)c2nc3cccc(C#CCO)c3c(=O)n2-c2ccccc2)n1` [Free base crystal form 2, (S)-2-(1-((6-amino-5-(3-methyl-1,2,4-oxadiazol-5-yl)pyrimidin-4-yl)amino)ethyl)-5-(3-hydroxyprop-1-yn-1-yl)-3-phenylquinazolin-4(3H)-one], in series [1], the AUClast was determined as 26700 ± 6300 ng·h/mL, the highest concentration (Cmax) was found to be 2480 ± 600 ng/mL and the Tmax was found to be 2.36 ± 1.2 h. In addition, in series [2] (male SD rats), the AUClast worked out at 39800 ± 7600 ng·h/mL, the Cmax came to 5800 ± 850 ng/mL and the Tmax is recorded as 1.67 ± 0.58 h.
Take `Cc1noc(-c2c(N)ncnc2N[C@@H](C)c2nc3cccc(C#CCO)c3c(=O)n2-c2ccccc2)n1` [crystal form A of Sulfate salt, (S)-2-(1-((6-amino-5-(3-methyl-1,2,4-oxadiazol-5-yl)pyrimidin-4-yl)amino)ethyl)-5-(3-hydroxyprop-1-yn-1-yl)-3-phenylquinazolin-4(3H)-one]: in series [2] (male SD rats), the AUClast is 35300 ± 8920 ng·h/mL, the Cmax is 3310 ± 993 ng/mL and the Tmax worked out at 1.17 ± 0.764 h.
On the same counts, the results for `Cc1noc(-c2c(N)ncnc2N[C@@H](C)c2nc3cccc(C#CCO)c3c(=O)n2-c2ccccc2)n1` [crystal form A of bisulfate salt, (S)-2-(1-((6-amino-5-(3-methyl-1,2,4-oxadiazol-5-yl)pyrimidin-4-yl)amino)ethyl)-5-(3-hydroxyprop-1-yn-1-yl)-3-phenylquinazolin-4(3H)-one] are 40600 ± 183 ng·h/mL, 4080 ± 375 ng/mL and 1.50 ± 0.866 h.
On to `Cc1noc(-c2c(N)ncnc2N[C@@H](C)c2nc3cccc(C#CCO)c3c(=O)n2-c2ccccc2)n1` [crystal form A of p-toluenesulfonate salt] [(S)-2-(1-((6-amino-5-(3-methyl-1,2,4-oxadiazol-5-yl)pyrimidin-4-yl)amino)ethyl)-5-(3-hydroxyprop-1-yn-1-yl)-3-phenylquinazolin-4(3H)-one], for which the Outward entry in series [3] (0 day), in series [3] (setting [5]), in series [3] (setting [6]), in series [3] (setting [7]), in series [3] (setting [8]) and in series [3] (setting [9]) was “Light yellow powder” in each case. For the same molecule, the Outward result in series [3] (setting [10]), in series [4] (0 day), in series [4] (setting [12]), in series [4] (setting [13]), in series [4] (setting [14]) and in series [4] (setting [15]) was “Light yellow powder” each time. Further, the Outward entry in series [4] (setting [16]) and in series [4] (setting [17]) was “Light yellow powder” throughout. Also, the Purity in series [3] (0 day) was determined as 99.78%; in series [3] (setting [5]) it was 99.69%; in series [3] (setting [6]), 99.69%; in series [3] (setting [7]), 99.65%; in series [3] (setting [8]) it was 99.75%; in series [3] (setting [9]), 99.78%. Besides, the Purity in series [3] (setting [10]) is 99.81%; in series [4] (0 day), 99.78%; in series [4] (setting [12]), 99.74%; in series [4] (setting [13]), 99.78%; in series [4] (setting [14]), 99.69%; in series [4] (setting [15]), 99.61%. The Purity came out at 99.44% in series [4] (setting [16]); 99.1% in series [4] (setting [17]); 99.27% in the series “Long-term stability test” (0 day); 99.26% in “Long-term stability test” (3 months); 99.23% in “Long-term stability test” (6 months); 99.26% in the series “Long-term stability test” (9 months). The results for the Purity in “Long-term stability test” (12 months), in “Long-term stability test” (18 months) and in the series “Long-term stability test” (24 months) were 99.27%, 99.24% and 99.24%, respectively. The appearance and purity entry is “not significantly changed” in series [3] (conditions of high humidity), “not significantly changed” in series [4] (conditions of high temperature) and “no obvious change” in the series “Long-term stability test” (condition of long-term stability test). The blood concentration result in series [1] (setting [11]) is reported as “higher”. Further, in series [1] (setting [11]), the exposure entry is given as “higher”. In addition, the AUClast in series [1] was 84200 ± 20000 ng·h/mL. Further, the values for the highest concentration (Cmax) in series [1] and in series [2] (male SD rats) were 8400 ± 1800 ng/mL and 6810 ± 1700 ng/mL, respectively.
In the case of `Cc1noc(-c2c(N)ncnc2N[C@@H](C)c2nc3cccc(C#CCO)c3c(=O)n2-c2ccccc2)n1` [crystal form A of phosphate salt, (S)-2-(1-((6-amino-5-(3-methyl-1,2,4-oxadiazol-5-yl)pyrimidin-4-yl)amino)ethyl)-5-(3-hydroxyprop-1-yn-1-yl)-3-phenylquinazolin-4(3H)-one], in series [2] (male SD rats), the AUClast turned out to be 37800 ± 6550 ng·h/mL, the Cmax worked out at 3950 ± 1500 ng/mL and the time to peak (Tmax) is 1.50 ± 0.866 h.

Broadly, the Tmax is the time from dosing to the highest level. For orientation: AUC(0-t) means exposure summed from dosing to a finite time, without extrapolation to infinity. Read a low AUC(0-t) as less exposure. Broadly, the Cmax is the maximum level reached in the sampled fluid or tissue.

The record behind these values is patent publication EP4458825A1, “SALT OF AMINOPYRIMIDINE COMPOUND AND USE THEREOF” (Sunshine Lake Pharma Co., Ltd., priority 2021, dated 2023).
